Values quoted from earlier work in patent publication US20050255076A1, “Therapeutic cream for dermatitis” (priority 2004, published 2005).

Settings: in alcohol and in water

Properties: solubility: Soluble in alcohol and water
Compound: C[S+](C)[O-] [Dimethyl sulfoxide]
